The record followed here is US11242337B2, “Compounds useful for treating gastrointestinal tract disorders” (Ardelyx, Inc., priority 2017, dated 2022).

In test [1] the test system is absorption of sodium from the intestinal lumen. The experiment in a line: Inhibition of intestinal sodium absorption in mice. Format: in vivo. Conditions: CD-1 mice, 15 mg/kg oral gavage twice daily; for Fecal fluid content (Δ from vehicle): day 3, change from vehicle group mean; for response vs control in vivo at 15 mg/kg: Mus musculus, 72 h. The procedure:
Urinary and fecal sodium excretions were measured to assess the ability of selected example compounds to inhibit the absorption of sodium from the intestinal lumen. In addition, an assessment of the absence or presence of diarrhea in response to compound treatment was made. Approximately eight-week old, male, CD-1 mice were purchased from Envigo (Livermore, Calif.), were housed 6 per cage and acclimated for at least 48 hours before study initiation. Animals were fed Harlan Teklad Global TD.160470 rodent chow (Madison, Wis.), standard laboratory rodent chow Harlan Teklad Global 2018 with the addition of 0.4% inorganic phosphorous. […] To initiate the study, mice were weighed and then individually placed in metabolic cages. Following a 3-day acclimation period to the metabolic cage, a 24-hr baseline collection of urine and feces was performed. […] Each day, measurements of body weight. 24-hour food intake, water intake, urine volume and wet fecal weight were recorded, along with any observation of diarrhea. Fecal samples were dried using a lyophilizer for at least 3 days, following which dry weight was recorded and fecal fluid content was calculated based on the difference between the wet and dry stool weights. Fecal fluid content on day 3 of compound treatment was calculated as a change from the vehicle group mean. For urine samples, the volumes were determined gravimetrically. Feces and urine were analyzed for sodium content by microwave plasma-atomic emission spectroscopy or ion chromatography, respectively. Urine samples were analyzed on an ion chromatography system (Thermo Fisher ICS-3000 or ICS-5000+) coupled with conductivity detectors. Chromatographic separation of cations was performed using an IonPac CS12A (Thermo Fisher) 2×250 mm analytical column with an isocratic elution using […] methanesulfonic acid. Concentrations were interpolated from a a standard curve (prepared in 10 mM HCl) for sodium ion based on retention time and peak area. Fecal sample analysis by Microwave Plasma Atomic Emission Spectrometry (MP-AES). Dry fecal samples were ground into a fine powder on a homogenizer and the ground samples (400-600 mg aliquots weighed) were digested with nitric acid by microwave method (Mars 6). These digested samples were diluted with 1% Nitric acid and analyzed on Agilent 4100 MP-AES. Concentrations were calculated relative to a standard curve (prepared in 1% Nitric acid) for sodium based on the signal intensity. Sodium was detected at a wavelength of 588.995 nm. Twenty-four-hour urinary sodium excretion (ma/24-hours) was calculated by multiplying urinary sodium concentration by 24-hour urine volume. Twenty-four-hour fecal sodium excretion (mg/24-hours) was calculated by multiplying fecal sodium concentration by 24-hour dry fecal weight. The urinary and fecal sodium excretion on day 3 of compound treatment were normalized to dietary sodium intake and expressed as a percentage of the vehicle mean.

The subject of test [2] is human ileum monolayer culture. In words: Sustained inhibition of apical acid secretion in human organoid monolayer cell cultures (ileum). Format: cell-based. Conditions: 1 μM apical, dosed day 6, apical media pH day 8, vs DMSO; for inhibition at 1 µM: Homo sapiens, 48 h. The procedure: (§1) Basal media (BM) consisted of advanced DMEM/F12 containing 10 mM HEPES Invitrogen, 15630-080), 1:100 Glutamax (Invitrogen, 35050-061), and 1:100 penicillin/streptomycin (Invitrogen, 15140-122). Supplemented basal media (SBM) contained 1:100 N2 (Invitrogen, 17502-048), 1:50 B27 (Invitrogen, 12587-010), 1 mM N-acetylcysteine (Sigma, A9165), and 10 nM [Leu15]-gastrin I (Sigma, G9145). Growth factors used included 50 ng per mL mouse EGF (Peprotech, 315-09), 100 ng per mL mouse noggin (Peprotech, 250-38), 500 ng per mL human R-spondin 1 (R&D, 4645-RS), 100 ng per mL mouse Wnt-3a (R&D, 1324-WN), 20 μM. Y-27632 (Tocris, 1254), 10 mM nicotinamide (Sigma, N0636), 500 nM A83-01 (Tocris, 2939), 10 μM SB202190 (Tocris, 1264). Transwells were 0.4 μm pore polyester membrane 24-well Transwell inserts (Corning). Cultures were incubated at 37° C. in 5% CO2.
(§2) Human ileum organoids were cultured in WENRNAS (Wnt, EGF, noggin, R-spondin1, Nicotinamide, A83-01, SB202190) and typically grown for 7-12 days before being used to plate monolayer cultures. On day 0, organoid cultures embedded in Matrigel were treated with TrypLE Express to break organoids into small pieces and/or single cells. The cells were resuspended to 0.5×10^6 cells/mL in SBM containing WENRAY (Wnt, EGF, noggin, R-spondin1, A83-01, Y-27632). Following this step, 200 μL of cell suspension was plated into the apical side of a 24-well Transwell (100,000 cells/well) and 600 μL of SBM with WENRAY was added to the basolateral side. Ileum cells were differentiated with ENRA (EGF, noggin, R-spondin 1, A83-01) on day 3. The color of apical compartment turns from pink or orange to yellow due to the increase in NHE3 expression after differentiation.
(§3) Each human ileum monolayer culture well was washed twice with fresh SBM on the apical side on day 6 before compound dosing. All compound stocks were 10 mM dissolved in DMSO. Each compound stock was individually mixed with fresh SBM to reach final compound concentration 1 μM and dosed only on the apical side of the monolayer (total volume 200 μl). DMSO at the equivalent concentration was used as the vehicle control. Duplicate wells were dosed for each compound. On day 8, apical media pH was measured by pH electrode, to determine the ability of example compounds to produce sustained inhibition of NHE3 activity in a human monolayer culture system by preventing proton secretion into the apical compartment.

Test [3] has as its system human duodenum monolayer culture. In words: Sustained inhibition of apical acid secretion in human organoid monolayer cell cultures (duodenum). Conditions: for inhibition at 1 µM: Homo sapiens. The test is classed as cell-based. The procedure: as §1, §3
as §2, with “Human duodenum” for “Human ileum”, “side. Duodenum” for “side. Ileum”, “with ENA” for “with ENRA”, “noggin,” for “noggin, R-spondin 1,”

The mark [4] stands for this setting: day 3, normalized to dietary sodium intake, read-out: Fecal Na Excretion (% of vehicle).
The mark [5] stands for this setting: day 3, normalized to dietary sodium intake, read-out: Urinary Na Excretion (% of vehicle).
Setting [6] is: day 3, normalized to dietary sodium intake.

Where two headings read alike, the source gives them in different places. Some results are limits rather than exact numbers.

As for `Cc1cc(Cl)cc2c1C[C@H](N1CCC[C@@H](N(C)C)C1)[C@H]2Oc1ccc(S(=O)(=O)NCCOCCOCCNC(=O)NCCCCNC(=O)NCCOCCOCCNS(=O)(=O)c2ccc(O[C@H]3c4cc(Cl)cc(C)c4C[C@@H]3N3CCC[C@@H](N(C)C)C3)cc2)cc1` [Example 28, 3-[2-(2-[2-[(4-[[(1S,2S)-6-Chloro-2-[(3R)-3-(dimethylamino)piperidin-1-yl]-4-methyl-2,3-dihydro-1H-inden-1-yl]oxy]benzene)sulfonamido]ethoxy]ethoxy)ethyl]-1-[4-([[2-(2-[2-[(4-[[(1S,2S)-6-chloro-2-[(3R)-3-(dimethylamino)piperidin-1-yl]-4-methyl-2,3-dihydro-1H-inden-1-yl]oxy]benzene)sulfonamido]ethoxy]ethoxy)ethyl]carbamoyl]amino)butyl]urea; bis(trifluoroacetic acid)], the “Fecal fluid content (Δ from vehicle)” value in test [1] was “B (5-10)”. Moreover, the response vs control in vivo at 15 mg/kg in test [1] (setting [4]) is 150 to 200%; in test [1] (setting [5]), over 70%. The inhibition at 1 µM in test [2] and in test [3] was 50 to 70% throughout.

In the case of “3-[2-(2-[2-[(4-[[(1S,2S)-4,6-Dichloro-2-[(3R)-3-[methyl(propan-2-yl)amino]piperidin-1-yl]-2,3-dihydro-1H-inden-1-yl]oxy]benzene) sulfonamido]ethoxy]ethoxy)ethyl]-1-[4-([[2-(2-[2-[(4-[[(1S,2S)-4,6-dichloro-2-[(3R)-3-[methyl(propan-2-yl)amino]piperidin-1-yl]-2,3-dihydro-1H-inden-1-yl]oxy]benzene)sulfonamido]ethoxy]ethoxy)ethyl]carbamoyl]amino)butyl]urea; bis(trifluoroacetic acid) [Example 78]”, the “Fecal fluid content (Δ from vehicle)” value in test [1] is given as “A (<5)”. In test [1] (setting [6]), the “Fecal Na Excretion (% of vehicle)” value is given as “A (<150%)” and the “Urinary Na Excretion (% of vehicle)” value is “A (>70%)”. In addition, the “% inhibition (ileum)” value in test [2] is “C (>70%)”. Moreover, the “% inhibition (duodenum)” value in test [3] (1 μM apical, inhibition of apical acid secretion vs DMSO) is “C (>70%)”.

Turning to `O=C(NCCCCNC(=O)NCCOCCOCCNS(=O)(=O)c1ccc(O[C@H]2c3cc(Cl)cc(Cl)c3C[C@@H]2N2CCNCC2)cc1)NCCOCCOCCNS(=O)(=O)c1ccc(O[C@H]2c3cc(Cl)cc(Cl)c3C[C@@H]2N2CCNCC2)cc1` [Example 31, 3-[2-(2-[2-[(4-[[(1S,2S)-4,6-Dichloro-2-(piperazin-1-yl)-2,3-dihydro-1H-inden-1-yl]oxy]benzene)sulfonamido]ethoxy]ethoxy)ethyl]-1-[4-([[2-(2-[2-[(4-[[(1S,2S)-4,6-dichloro-2-(piperazin-1-yl)-2,3-dihydro-1H-inden-1-yl]oxy]benzene)sulfonamido]ethoxy]ethoxy)ethyl]carbamoyl]amino)butyl]urea; bis(trifluoroacetic acid)], the “Fecal fluid content (Δ from vehicle)” value in test [1] is on record as “B (5-10)”. In addition, the response vs control in vivo at 15 mg/kg is over 200% in test [1] (setting [4]) and 50 to 70% in test [1] (setting [5]). Also, the inhibition at 1 µM in test [2] and in test [3] was over 70% throughout.

For the compound `N#Cc1cc(Cl)cc2c1C[C@H](N1CCNCC1)[C@H]2Oc1ccc(S(=O)(=O)NCCOCCOCCNC(=O)NCCCCNC(=O)NCCOCCOCCNS(=O)(=O)c2ccc(O[C@H]3c4cc(Cl)cc(C#N)c4C[C@@H]3N3CCNCC3)cc2)cc1` [Example 41, 3-[2-(2-[2-[(4-[[(1S,2S)-6-Chloro-4-cyano-2-(piperazin-1-yl)-2,3-dihydro-1H-inden-1-yl]oxy]benzene)sulfonamido]ethoxy]ethoxy)ethyl]-1-[4-([[2-(2-[2-[(4-[[(1S,2S)-6-chloro-4-cyano-2-(piperazin-1-yl)-2,3-dihydro-1H-inden-1-yl]oxy]benzene)sulfonamido]ethoxy]ethoxy)ethyl]carbamoyl]amino)butyl]urea; bis(trifluoroacetic acid)], the “Fecal fluid content (Δ from vehicle)” value in test [1] is listed as “B (5-10)”. The response vs control in vivo at 15 mg/kg was over 200% in test [1] (setting [4]) and under 50% in test [1] (setting [5]). The inhibition at 1 µM in test [2] is 50 to 70%; in test [3], over 70%.

In the case of `N#Cc1cc(Cl)cc2c1C[C@H](N1CCNCC1)[C@H]2Oc1ccc(S(=O)(=O)NCCOCCOCCNC(=O)NCCCCNC(=O)NCCOCCOCCNS(=O)(=O)c2ccc(O[C@H]3c4cc(Cl)cc(C#N)c4C[C@@H]3N3CCNCC3)c(F)c2)cc1F` [Example 43, 3-[2-(2-[2-[(4-[[(1S,2S)-6-Chloro-4-cyano-2-(piperazin-1-yl)-2,3-dihydro-1H-inden-1-yl]oxy]-3-fluorobenzene)sulfonamido]ethoxy]ethoxy)ethyl]-1-[4-([[2-(2-[2-[(4-[[(1S,2S)-6-chloro-4-cyano-2-(piperazin-1-yl)-2,3-dihydro-1H-inden-1-yl]oxy]-3-fluorobenzene)sulfonamido]ethoxy]ethoxy)ethyl]carbamoyl]amino)butyl]urea; bis(trifluoroacetic acid)], the “Fecal fluid content (Δ from vehicle)” value in test [1] was “C (>10)”. The response vs control in vivo at 15 mg/kg in test [1] (setting [4]) was over 200%; in test [1] (setting [5]), under 50%. Also, the values for the inhibition at 1 µM in test [2] and in test [3] were 50 to 70% and over 70%, respectively.

Broadly, the inhibition is the percentage by which the read-out fell short of the control. Higher therefore signals a response far below the control.
